Measured values taken from ChEMBL document CHEMBL5233275, “Effect of Flexibility, Lipophilicity, and the Location of Polar Residues on the Passive Membrane Permeability of a Series of Cyclic Decapeptides” (J Med Chem, 2021).
Converted amounts (≈) assume the structure as drawn. Where a SMILES comes first, the peptide text is derived from it. [ ]: non-standard residue; d: D form. NMeF = CN[C@@H](Cc1ccccc1)C(=O)O; NMeA = CN[C@@H](C)C(=O)O; dNMeA = CN[C@H](C)C(=O)O; Sar = CNCC(=O)O

How the values were obtained:
Format in all cases: physicochemical
[1] = Decadiene/water partition coefficient, logD of compound at pH 7.4 by HPLC analysis
[2] = Octanol/water partition coefficient, logD of compound at pH 7.4 by HPLC analysis
[3] = Solubility of the compound by high-throughput equilibrium solubility assay

logD hydrocarbon water [1]	logD [2]	solubility thermodynamic [3] [µM]	SMILES
3.8	5.2	560 (≈ 571 µg/mL)	CC(C)C[C@@H]1NC(=O)[C@H](C)N(C)C(=O)[C@H](CC(C)C)NC(=O)[C@H](C(C)C)N(C)C(=O)[C@@H](C)N(C)C(=O)[C@H](CC(C)C)NC(=O)[C@H](C)N(C)C(=O)[C@H](CC(C)C)NC(=O)[C@H](C(C)C)N(C)C(=O)[C@@H](C)N(C)C1=O
2.7	4.6	477 (≈ 459 µg/mL)	CC(C)C[C@@H]1NC(=O)[C@H](C)N(C)C(=O)[C@H](CC(C)C)NC(=O)[C@H](C)N(C)C(=O)[C@@H](C)N(C)C(=O)[C@H](CC(C)C)NC(=O)[C@H](C)N(C)C(=O)[C@H](CC(C)C)NC(=O)[C@H](C)N(C)C(=O)[C@@H](C)N(C)C1=O (cyclo(L[NMeA]L[dNMeA][NMeA]L[NMeA]L[dNMeA][NMeA]))
3.8	5.1	57 (≈ 59.5 µg/mL)	CC(C)C[C@@H]1NC(=O)[C@H](C(C)C)N(C)C(=O)[C@H]2CCCN2C(=O)[C@H](CC(C)C)NC(=O)[C@H](C)N(C)C(=O)[C@H](CC(C)C)NC(=O)[C@H](C(C)C)N(C)C(=O)[C@H]2CCCN2C(=O)[C@H](CC(C)C)NC(=O)[C@H](C)N(C)C1=O
> 3.5	> 5.7	4 (≈ 4.56 µg/mL)	CC(C)C[C@@H]1NC(=O)[C@H](Cc2ccccc2)N(C)C(=O)[C@H]2CCCN2C(=O)[C@H](CC(C)C)NC(=O)[C@H](C)N(C)C(=O)[C@H](CC(C)C)NC(=O)[C@H](Cc2ccccc2)N(C)C(=O)[C@H]2CCCN2C(=O)[C@H](CC(C)C)NC(=O)[C@H](C)N(C)C1=O (cyclo(L[NMeA]L[dP][NMeF]L[NMeA]L[dP][NMeF]))
5.1		4 (≈ 4.46 µg/mL)	CC(C)C[C@@H]1NC(=O)[C@H](C)N(C)C(=O)[C@H](CC(C)C)NC(=O)[C@H](Cc2ccccc2)N(C)C(=O)[C@@H](C)N(C)C(=O)[C@H](CC(C)C)NC(=O)[C@H](C)N(C)C(=O)[C@H](CC(C)C)NC(=O)[C@H](Cc2ccccc2)N(C)C(=O)[C@@H](C)N(C)C1=O (cyclo(L[NMeA]L[dNMeA][NMeF]L[NMeA]L[dNMeA][NMeF]))
5	5.7	4 (≈ 4.68 µg/mL)	CC(C)C[C@@H]1NC(=O)[C@H](Cc2ccccc2)N(C)C(=O)[C@H]2CCCN2C(=O)[C@H](CC(C)C)NC(=O)[C@H](C)N(C)C(=O)[C@H](CC(C)C)NC(=O)[C@H](Cc2ccccc2)N(C)C(=O)[C@H]2CCCN2C(=O)[C@H](CC(C)C)NC(=O)[C@H]([C@@H](C)O)N(C)C1=O
3.1	5.1	92 (≈ 93.4 µg/mL)	CC(C)C[C@@H]1NC(=O)[C@H](C)N(C)C(=O)[C@H](CC(C)C)NC(=O)[C@H]2CCCN2C(=O)[C@@H]2CCCN2C(=O)[C@H](CC(C)C)NC(=O)[C@H](C)N(C)C(=O)[C@H](CC(C)C)NC(=O)[C@H](C(C)C)N(C)C(=O)[C@@H](C)N(C)C1=O
-0.6	4.7	320 (≈ 360 µg/mL)	CC(C)C[C@@H]1NC(=O)[C@H]([C@@H](C)O)N(C)C(=O)[C@@H]2C[C@@H](O)CN2C(=O)[C@H](CC(C)C)NC(=O)[C@H](C)N(C)C(=O)[C@H](CC(C)C)NC(=O)[C@H](Cc2ccccc2)N(C)C(=O)[C@@H]2C[C@@H](O)CN2C(=O)[C@H](CC(C)C)NC(=O)[C@H](C)N(C)C1=O
1.2		> 1000	CC(C)C[C@@H]1NC(=O)[C@H](C)N(C)C(=O)[C@H]2CCCN2C(=O)[C@H](CC(C)C)NC(=O)[C@H](C)N(C)C(=O)[C@H](CC(C)C)NC(=O)[C@H]([C@@H](C)O)N(C)C(=O)[C@H]2CCCN2C(=O)[C@H](CC(C)C)NC(=O)[C@H]([C@@H](C)O)N(C)C1=O
0.2	4.1	910 (≈ 913 µg/mL)	CC(C)C[C@@H]1NC(=O)[C@H](C)N(C)C(=O)[C@H]2CCCN2C(=O)[C@H](CC(C)C)NC(=O)[C@H](C)N(C)C(=O)[C@H](CC(C)C)NC(=O)[C@H](C)N(C)C(=O)[C@@H]2C[C@@H](O)CN2C(=O)[C@H](CC(C)C)NC(=O)[C@H](C)N(C)C1=O
2.5	4.7	794 (≈ 784 µg/mL)	CC(C)C[C@@H]1NC(=O)[C@H](C)N(C)C(=O)[C@H]2CCCN2C(=O)[C@H](CC(C)C)NC(=O)[C@H](C)N(C)C(=O)[C@H](CC(C)C)NC(=O)[C@H](C)N(C)C(=O)[C@H]2CCCN2C(=O)[C@H](CC(C)C)NC(=O)[C@H](C)N(C)C1=O
1.6	4.3	220 (≈ 222 µg/mL)	CC(C)C[C@@H]1NC(=O)[C@@H]2CCCN2C(=O)[C@H]2CCCN2C(=O)[C@H](CC(C)C)NC(=O)[C@H](C)N(C)C(=O)[C@H](CC(C)C)NC(=O)[C@@H]2CCCN2C(=O)[C@H]2CCCN2C(=O)[C@H](CC(C)C)NC(=O)[C@H](C)N(C)C1=O
1		445 (≈ 466 µg/mL)	CC(C)C[C@@H]1NC(=O)[C@H](C)N(C)C(=O)[C@H]2CCCN2C(=O)[C@H](CC(C)C)NC(=O)[C@H]([C@@H](C)O)N(C)C(=O)[C@H](CC(C)C)NC(=O)[C@H](C)N(C)C(=O)[C@H]2CCCN2C(=O)[C@H](CC(C)C)NC(=O)[C@H]([C@@H](C)O)N(C)C1=O
4	5.4	15 (≈ 16.9 µg/mL)	CC(C)C[C@@H]1NC(=O)[C@H](Cc2ccccc2)N(C)C(=O)[C@H]2CCCN2C(=O)[C@H](CC(C)C)NC(=O)[C@H](C)N(C)C(=O)[C@H]([C@@H](C)O)NC(=O)[C@H](Cc2ccccc2)N(C)C(=O)[C@H]2CCCN2C(=O)[C@H](CC(C)C)NC(=O)[C@H](C)N(C)C1=O
4	5.2	220 (≈ 227 µg/mL)	CC(C)C[C@@H]1NC(=O)[C@H](C(C)C)N(C)C(=O)[C@H]2CCCN2C(=O)[C@H](CC(C)C)NC(=O)[C@@H](C)N(C)C(=O)[C@H](CC(C)C)NC(=O)[C@H](C(C)C)N(C)C(=O)[C@H](C)N(C)C(=O)[C@H](CC(C)C)NC(=O)[C@@H](C)N(C)C1=O
-0.8		> 1000	CC(C)C[C@@H]1NC(=O)[C@H]([C@@H](C)O)N(C)C(=O)[C@H]2CCCN2C(=O)[C@H](CC(C)C)NC(=O)[C@H]([C@@H](C)O)N(C)C(=O)[C@H](CC(C)C)NC(=O)[C@H]([C@@H](C)O)N(C)C(=O)[C@H]2CCCN2C(=O)[C@H](CC(C)C)NC(=O)[C@H]([C@@H](C)O)N(C)C1=O
1.2	3.8	884 (≈ 926 µg/mL)	CC(C)C[C@@H]1NC(=O)[C@H]([C@@H](C)O)N(C)C(=O)[C@H]2CCCN2C(=O)[C@H](CC(C)C)NC(=O)[C@H](C)N(C)C(=O)[C@H](CC(C)C)NC(=O)[C@H]([C@@H](C)O)N(C)C(=O)[C@H]2CCCN2C(=O)[C@H](CC(C)C)NC(=O)[C@H](C)N(C)C1=O
1.7		763 (≈ 776 µg/mL)	CC(C)C[C@@H]1NC(=O)[C@H](C)N(C)C(=O)[C@H]2CCCN2C(=O)[C@H](CC(C)C)NC(=O)[C@H](C)N(C)C(=O)[C@H](CC(C)C)NC(=O)[C@H](C)N(C)C(=O)[C@H]2CCCN2C(=O)[C@H](CC(C)C)NC(=O)[C@H]([C@@H](C)O)N(C)C1=O
0.3		> 1000	CC(C)C[C@@H]1NC(=O)[C@H](C)N(C)C(=O)[C@H](CC(C)C)NC(=O)[C@@H]2CCCN2C(=O)CN(C)C(=O)[C@H](CC(C)C)NC(=O)[C@H](C)N(C)C(=O)[C@H](CC(C)C)NC(=O)[C@@H]2CCCN2C(=O)CN(C)C1=O (cyclo(L[NMeA]L[Sar]PL[NMeA]L[Sar]P))
0.4		827 (≈ 891 µg/mL)	CC(C)C[C@@H]1NC(=O)[C@H]([C@@H](C)O)N(C)C(=O)[C@H]2CCCN2C(=O)[C@H](CC(C)C)NC(=O)[C@H]([C@@H](C)O)N(C)C(=O)[C@H](CC(C)C)NC(=O)[C@H](C)N(C)C(=O)[C@H]2CCCN2C(=O)[C@H](CC(C)C)NC(=O)[C@H]([C@@H](C)O)N(C)C1=O
3.6	5.1	20 (≈ 22.5 µg/mL)	CC(C)C[C@@H]1NC(=O)[C@H](Cc2ccccc2)N(C)C(=O)[C@H]2CCCN2C(=O)[C@H](CC(C)C)NC(=O)[C@H](C)N(C)C(=O)[C@H](CC(C)C)NC(=O)[C@H](Cc2ccccc2)N(C)C(=O)[C@H]2CCCN2C(=O)[C@H]([C@@H](C)O)NC(=O)[C@H](C)N(C)C1=O
0.1	2.6	> 1000	CC(C)C[C@@H]1NC(=O)[C@H](C)N(C)C(=O)[C@H]2CCCN2C(=O)[C@H](CC(C)C)NC(=O)[C@H](C)N(C)C(=O)[C@H](CC(C)C)NC(=O)[C@H](C)N(C)C(=O)[C@H]2CCCN2C(=O)[C@H]([C@@H](C)O)NC(=O)[C@H](C)N(C)C1=O
0.4	2.7	> 1000	CC(C)C[C@@H]1NC(=O)[C@H](C)N(C)C(=O)[C@H]2CCCN2C(=O)[C@H](CC(C)C)NC(=O)[C@H](C)N(C)C(=O)[C@H]([C@@H](C)O)NC(=O)[C@H](C)N(C)C(=O)[C@H]2CCCN2C(=O)[C@H](CC(C)C)NC(=O)[C@H](C)N(C)C1=O
3.7	5.7	65 (≈ 71.1 µg/mL)	CC(C)C[C@@H]1NC(=O)[C@H]([C@@H](C)O)N(C)C(=O)[C@H]2CCCN2C(=O)[C@H](CC(C)C)NC(=O)[C@H](C)N(C)C(=O)[C@H](CC(C)C)NC(=O)[C@H](Cc2ccccc2)N(C)C(=O)[C@H]2CCCN2C(=O)[C@H](CC(C)C)NC(=O)[C@H](C)N(C)C1=O
